Source: article PMC6615598, “Novel antibiotics effective against gram-positive and -negative multi-resistant bacteria with limited resistance” (PLoS Biology, 2019)
Read-outs that look alike come from different tables or passages of the source. Starred links: 1 amine or outer side, 2 acyl side, 3 side chain; linkers in the order of their positions; H or OH if unused. Non-standard residues stand in square brackets, D forms with d. Residues, ends and D or L forms follow the SMILES beside them. azaβ3(1Nal) = O=C(CN(Cc1cccc2ccccc12)N[*:1])[*:2]

What was measured:
[1] = Stability in human serum (half-life); type: in vitro ADME; conditions: 25% human serum, pre-incubated 15 min at 37°C, peptide 10^−4 M, RP-HPLC peak areas, mean of biological triplicates
Procedure: (§1) (10−4 M final concentrations). At selected time intervals, 100 μl of reaction mixture was collected, quenched by 200 μl 95% EtOH, and adjusted at pH 2 to prevent peptide adsorption to serum proteins. […] Supernatants were analyzed by RP-HPLC on an Xbridge C18 column with a linear gradient of water, 0.08% TFA, and acetonitrile with 1% TFA. HPLC peak areas were used to calculate the percentages of intact compound remaining at the various time points. MIC and MBC values were determined in triplicate in many ESKAPE clinical isolates, including a dozen MDR S. aureus, by the broth microdilution method. Peptidomimetics and antibiotics were assayed in a concentration range of 1 to 128 μM. The bacterial inoculum (5 × 10^5 colony-forming units [CFUs]/well) was prepared in MHB or CAMHB (150 μl). A Biotek Synergy 2 spectrophotometer was used to record the results after 18–20 h incubation at 35°C (±2°C). […] After every hour of culture for 4 h, serial dilutions were plated on BHI plates and incubated overnight at 37°C, and then the CFUs were counted and expressed as log CFU/ml. Phosphate-buffered saline (PBS)-exposed S. aureus MRSA was included as a control.
Supplementary file pbio.3000337.s013.docx: S7 Table Peptide half-lives in human and mouse sera. […] Peptide amounts and half-lives were determined by HPLC. Experiments were conducted on 25% human or mouse sera. Values are shown in minutes. The mean values correspond to biological triplicates. HPLC, high pressure liquid chromatography. (DOCX) Click here for additional data file.

S. aureus Mu3 (MRSA) = test: microbe, parasite or virus in culture; conditions: Mu3
Procedure: as §1

S. aureus N315 (MRSA) = test: microbe, parasite or virus in culture; conditions: N315
Procedure: as §1

S. aureus Newman = test: microbe, parasite or virus in culture; conditions: Newman
Procedure: as §1

[2] = system: Enterobacter cloacae ATCC13047; conditions: ATCC13047
Procedure: as §1

Escherichia coli 146 = conditions: 146
Procedure: as §1

A. baumanii 11896 = system: A. baumanii 11896
Procedure: as §1

Escherichia coli 444 = conditions: 444
Procedure: as §1

Escherichia coli 508 = system: Escherichia coli 508
Procedure: as §1

P. aeruginosa 15637 = conditions: 15637
Procedure: as §1

P. aeruginosa 15644 = system: P. aeruginosa 15644
Procedure: as §1

K. pneumoniae 13829 = conditions: 13829
Procedure: as §1

Escherichia coli PV = conditions: PV
Procedure: as §1

Escherichia coli ML35P = conditions: E. coli ML35P; broth microdilution; 3 independent experiments
Procedure: as §1

Escherichia coli MCR−1 = conditions: MCR−1
Procedure: as §1

Escherichia coli 066 = conditions: 066
Procedure: as §1

P. aeruginosa PA14 = conditions: PA14
Procedure: as §1

Escherichia coli 13090 = system: Escherichia coli 13090
Procedure: as §1

Escherichia coli 283 = conditions: 283
Procedure: as §1

Escherichia coli 293 = conditions: 293
Procedure: as §1

P. aeruginosa 15638 = system: P. aeruginosa 15638
Procedure: as §1

Escherichia coli K12 = conditions: K12
Procedure: as §1

Escherichia coli 750 = system: Escherichia coli 750
Procedure: as §1

P. aeruginosa 15643 = system: P. aeruginosa 15643
Procedure: as §1

A. baumanii 7985 = system: A. baumanii 7985
Procedure: as §1

E. faecium Aus0004 = system: E. faecium Aus0004
Procedure: as §1

Escherichia coli 758 = conditions: 758
Procedure: as §1

K. pneumoniae 13825 = system: K. pneumoniae 13825
Procedure: as §1

P. aeruginosa 15641 = conditions: 15641
Procedure: as §1

Row | Compound | half-life [1] [h] | MIC (S. aureus Mu3 (MRSA)) | MIC (S. aureus N315 (MRSA)) | MIC (S. aureus Newman) | MIC [2] | MIC (Escherichia coli 146) | MIC (A. baumanii 11896) | MIC (Escherichia coli 444) | MIC (P. aeruginosa 15637) | MIC (K. pneumoniae 13829) [µM] | MIC (Escherichia coli PV) | MIC (Escherichia coli ML35P) | MIC (Escherichia coli MCR−1) | MIC (Escherichia coli 066) | MIC (P. aeruginosa PA14) | MIC (Escherichia coli 283) | MIC (Escherichia coli 293) | MIC (Escherichia coli K12) | MIC (A. baumanii 7985) | MIC (Escherichia coli 758) | other results
1 | CC(C)[C@@H]1NC(=O)[C@H](CCCNC(=N)N)NC(=O)[C@H](CCCNC(=N)N)NC(=O)[C@H](Cc2c[nH]c3ccccc23)NC(=O)[C@H](Cc2ccccc2)NC(=O)[C@H](Cc2ccccc2)NC(=O)[C@H](CCCCN)NC1=O [Pep18] (cyclo(FFWRRVK)) | 16.3 ± 1.67 | 8 (8.2) μM | 8 (8.2) μM | 16 (16.4) μM | 128 (131.2) μM | 32 (32.8) μM | >128 µM | 32 (32.8) μM | 8 (8.2) μM | >128 | 32 (32.8) μM | 16 (16.4) μM | 32 (32.8) μM | 32 (32.8) μM | 8 (8.2) μM | 32 (32.8) μM | 32 (32.8) μM | 16 (16.4) μM | >128 µM | 32 (32.8) μM | MIC (Escherichia coli 508; E. coli 508, clinical strain, Rennes urinary catheter, broth microdilution, 3 independent experiments): 64 (65.6) μM; MIC (P. aeruginosa 15644; P. aeruginosa 15644, clinical strain, Caen hemoculture, broth microdilution, 3 independent experiments): 64 (65.6) μM; MIC (Escherichia coli 13090; E. coli 13090, clinical strain, Caen hemoculture, broth microdilution, 3 independent experiments): 16 (16.4) μM; MIC (P. aeruginosa 15638; P. aeruginosa 15638, clinical strain, Caen hemoculture, broth microdilution, 3 independent experiments): 64 (65.6) μM; MIC (Escherichia coli 750; E. coli 750, clinical strain, Rennes urinary catheter, broth microdilution, 3 independent experiments): 16 (16.4) μM; MIC (P. aeruginosa 15643; P. aeruginosa 15643, clinical strain, Caen hemoculture, broth microdilution, 3 independent experiments): 16 (16.4) μM; MIC (E. faecium Aus0004; E. faecium Aus0004, broth microdilution, 3 independent experiments): 64 (65.6) μM; MIC (K. pneumoniae 13825; K. pneumoniae 13825, clinical strain, Caen hemoculture, broth microdilution, 3 independent experiments): 16 (16.4) μM; MIC (P. aeruginosa 15641): 32 (32.8) μM
2 | CC(C)[C@@H]1NC(=O)[C@H](CCCNC(=N)N)NC(=O)[C@H](CCCNC(=N)N)NC(=O)CN(Cc2cccc3ccccc23)NC(=O)[C@H](Cc2ccccc2)NC(=O)CN(Cc2cccc3ccccc23)NC(=O)[C@H](CCCCN)NC1=O [Pep19] (cyclo([azaβ3(1Nal)]F[azaβ3(1Nal)]RRVK)) | 24.2 ± 4.33 | 4 (4.5) μM | 4 (4.5) μM | 4 (4.5) μM | 16 (18) μM | 8 (9) μM | 8 (9) μM | 8 (9) μM | 8 (9) μM | >128 | 8 (9) μM | 4 (4.5) μM | 16 (18) μM | 8 (9) μM | 8 (9) μM | 8 (9) μM | 16 (18) μM | 4 (4.5) μM | 8 (9) μM | 8 (9) μM | MIC (Escherichia coli 508; 508): 8 (9) μM; MIC (P. aeruginosa 15644; 15644): 16 (18) μM; MIC (Escherichia coli 13090; 13090): 4 (4.5) μM; MIC (P. aeruginosa 15638; 15638): 16 (18) μM; MIC (Escherichia coli 750; 750): 8 (9) μM; MIC (P. aeruginosa 15643; 15643): 8 (9) μM; MIC (E. faecium Aus0004; Aus0004): 8 (9) μM; MIC (K. pneumoniae 13825; 13825): 8 (9) μM; MIC (P. aeruginosa 15641): 16 (18) μM
